Consider one compound from publication PMC8232238 (Cells, 2021).

SMILES strings stand for the structures.

The target in one data set is T1, HDAC1 (Homo sapiens, UniProt Q13547).
T1 construct: purchased Reaction Biology corporation (contract assay)
Nature of the data set: HDAC1 enzyme inhibition assay (single point and 10-dose IC50, Reaction Biology). The class given is biochemical. How it is done: (§1) All IC50 measurements we performed by Reaction Biology corporation. Compounds were tested in
(§2) dilution starting at 1 uM. […]
(§3) (RHK(Ac)K(Ac)AMC). IC50 values were calculated using the GraphPad Prism 4 program based on a
(§4) sigmoidal dose-response equation. […]

The next data set concerns the target T2, HDAC3 (Homo sapiens, UniProt O15379).
T2 construct: purchased Reaction Biology corporation (contract assay)
Nature of the data set: HDAC3 enzyme inhibition assay (single point and 10-dose IC50, Reaction Biology). In kind it is biochemical. Here is the method:
as §1, §2, §3, §4

The target in the next data set is T3, HDAC8 (Homo sapiens, UniProt Q9BY41).
T3 construct: purchased Reaction Biology corporation (contract assay)
T3 sequence (Q9BY41 1-377): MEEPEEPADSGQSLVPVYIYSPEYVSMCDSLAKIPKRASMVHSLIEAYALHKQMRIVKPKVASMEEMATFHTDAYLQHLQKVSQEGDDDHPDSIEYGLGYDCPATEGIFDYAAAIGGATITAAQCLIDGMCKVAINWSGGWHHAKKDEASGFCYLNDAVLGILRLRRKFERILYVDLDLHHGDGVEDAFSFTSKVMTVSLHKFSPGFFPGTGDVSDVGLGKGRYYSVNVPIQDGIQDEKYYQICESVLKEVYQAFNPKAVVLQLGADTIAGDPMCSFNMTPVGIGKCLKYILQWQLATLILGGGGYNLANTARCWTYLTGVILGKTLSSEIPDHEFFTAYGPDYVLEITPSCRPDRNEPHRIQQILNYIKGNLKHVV
In words: HDAC8 enzyme inhibition assay (single point and 10-dose IC50, Reaction Biology). In kind it is biochemical. Here is the method:
Against HDAC6, inhibition was determined using 0.01 µM of the inhibitor.
as §1, §2, §3, §4

Data set [1] has as its system acetylated tubulin in A549 cells. Nature of the data set: Tubulin acetylation in A549 cells, immunostaining with high content imaging. The class given is cell-based, human. The conditions noted are these: 24 h. Here is the method: (§5) To confirm the observed activities of the selected test compounds against HDAC6, the acetylation status of tubulin in the human lung cancer cell line A549 was investigated by immunostaining combined with automated high content image analysis (see supplementary material for full details). […] The apparent drop in histone acetylation by both compounds above 10 μM is indicative of a potential cytotoxicity at higher concentrations (data not shown).
(§6) Figure 5 Cell-based assessment of HDAC activity and selectivity. Dose and time-dependency of tubulin and histone acetylation by test compounds. A549 cells were treated with (A,B) different concentrations (0–50 µM) of CF011, KNH019 and tubastatin for 24 h or with (C,D) 1 µM over different time intervals before (A,C) tubulin acetylation or (B,D) histone acetylation were automatically quantified using high content imaging. Data represent the average of four independent experiments with four replicate wells/experiments. The statistical significances of effects compared to the untreated control were analysed using Brown–Forsythe and Welch one-way ANOVA analyses using Graph Pad Prism. The significance was set as * 0.05 > p ≥ 0.01, ** 0.01 > p ≥ 0.002. Error bars represent the Standard Error of Mean (SEM). (E) Representative fluorescence images show tubulin acetylation (yellow), histone acetylation (red) and nuclear counterstain (DAPI, blue) after 24 h of exposure to test compounds. Secondary antibodies were detected using excitation/emission filters for CY3 (excitation: 542/27 nm, emission: 597/45 nm), CY5 (excitation: 632/22 nm, emission: 684/25 nm) and DAPI (excitation: 390/18 nm, emission: 435/48 nm), respectively. […]
(§7) S2.2 Cell Culture, Treatment and Immunostaining:
(§8) A549 cells (ATCC® CCL-185™, In Vitro Technologies Pty. Ltd., Victoria, Australia) were cultured in low glucose Dulbecco’s Modified Eagle Media (DMEM, 1 g/L glucose, 0.584 g/L L-glutamine, 3.7 g/L sodium bicarbonate, 10 % fetal bovine serum) under standard conditions (> 90 % humidity, 37 °C temperature, 5 % CO 2). For experiments, 5,000 cells/ well were seeded in 100 µl serum free DMEM in 384 well plates (µCLEAR®, Greiner) and left to adhere for 24 hours before the treatment. Cells were treated with 100 µl of test compound -containing media for up to 24 hours before cells were fixed with 4 % paraformaldehyde (PFA) solution in PBS (10 minutes at room temperature (RT)) and permeabi lized with 50 µl of 0.5 % Triton X -100 in PBS. Subsequently, cells were blocked in PBST (5% fetal bovine serum, 5% bovine serum albumin, 5% goat serum, 0.1% Tween 20 in PBS) before stained with anti - acetylated tubulin (T7451, Sigma Aldrich; 1:1,000) and an ti-acetylated histone antibody (ab47915, Abcam; 1:1,000) overnight at 4 °C. Subsequently, cells were exposed to secondary antibodies (goat anti-mouse Alexa fluor 594 (Invitrogen; 1:10,000) and goat anti -rabbit Alexa fluor 647 (Invitrogen; 1:10,000) in PBST ) and DAPI solution (Invitrogen; 1:10,000 in PBST) before images were acquired.
(§9) Fluorescence images were acquired (10x magnification, 2 -D format) using the InCell 2200 high content imaging system (V7.3, GE Healthcare life sciences) wi th CY3 (excitation: 542/27 nm, emission: 597/45 nm), CY5 (excitation: 632/22 nm, emission: 684/25 nm) and DAPI (excitation: 390/18 nm, emission:
435/48 nm) filters. Two images/well at predefined positions were automatically acquired with 4 replicate wells for each treatment condition/ experiment. At least 3 independent experiments were conducted for each condition. Acquired images were automatically processed using InCarta software (v1.6, GE Healthcare life sciences). All images were manually checked for ar tefacts. Images with less than 30 cells were excluded from the analysis. Excel and GraphPad Prism was used for statistical analysis and graphical representation. Data was expressed as % Relative Fluorescence Units (RFU) […]

Data set [2] has as its system acetylated histone in A549 cells. In words: Histone acetylation in A549 cells, immunostaining with high content imaging. The conditions noted are these: 24 h. The class given is cell-based, human. How it is done: as §5, §6, §7, §8, §9
435/48 nm) filters. […] Data was expressed as % Relative Fluorescence Units (RFU) […]

Data set [3] is described as follows: UV/Vis absorption and fluorescence (photophysical properties) in DMSO. In kind it is physicochemical. Here is the method: S1.6 UV/Vis and Fluorescence Data
UV/Vis analysis was performed on a Cary Eclipse 300 UV/Vis spectrophotometer and fluorescence measurements performed on a Cary Eclipse Fluorescence spectrophotometer. All analysis was performed in 10 mm quartz cuvettes using AR grade DMSO. Relative quantum yields were obtained by comparison to quinine sulfate (фf = 0.58 in 0.1 M H2SO4) with absorbance of samples adjusted so that the absorbance at 340 nm was similar to the reference.
Emission spectra were obtained by excitation at 340 nm. Quantum yield was obtained by use of the following equation and are reported as the average of two samples with error <5%; […]
Where фref is the literature quantum yield of the reference, η is the refractive index of the solvent (H2O = 1.333, DMSO = 1.479) and Is is the integrated fluorescence intensity of the sample with Iref being the same of the reference.
Table S1 – Photophysical properties of selected compounds in DMSO […]
†Average of two samples, ±1%

Setting [4] is: average of two independent measurements.
[5] abbreviates: single point, inhibitor 1.0 μM, average of two measurements, ±2%.

T2 sequence (O15379 whole entry): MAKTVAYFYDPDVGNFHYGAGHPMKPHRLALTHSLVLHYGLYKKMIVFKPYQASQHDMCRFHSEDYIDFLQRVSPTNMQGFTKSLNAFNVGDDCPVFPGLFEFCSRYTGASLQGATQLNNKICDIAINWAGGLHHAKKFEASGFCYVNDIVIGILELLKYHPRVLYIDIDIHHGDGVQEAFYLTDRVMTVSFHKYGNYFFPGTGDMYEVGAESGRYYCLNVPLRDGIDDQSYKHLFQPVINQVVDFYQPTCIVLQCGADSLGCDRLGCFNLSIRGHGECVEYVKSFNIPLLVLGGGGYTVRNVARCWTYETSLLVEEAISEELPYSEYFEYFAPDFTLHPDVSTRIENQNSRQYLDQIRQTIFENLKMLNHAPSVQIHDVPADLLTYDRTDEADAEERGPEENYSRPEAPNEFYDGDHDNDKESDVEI
T2 sequence (Q9Y618 395-489 partner limits assumed): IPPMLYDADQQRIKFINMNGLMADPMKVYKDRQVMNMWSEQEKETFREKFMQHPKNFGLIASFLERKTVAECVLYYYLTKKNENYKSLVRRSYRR
T1 sequence (Q13547 whole entry): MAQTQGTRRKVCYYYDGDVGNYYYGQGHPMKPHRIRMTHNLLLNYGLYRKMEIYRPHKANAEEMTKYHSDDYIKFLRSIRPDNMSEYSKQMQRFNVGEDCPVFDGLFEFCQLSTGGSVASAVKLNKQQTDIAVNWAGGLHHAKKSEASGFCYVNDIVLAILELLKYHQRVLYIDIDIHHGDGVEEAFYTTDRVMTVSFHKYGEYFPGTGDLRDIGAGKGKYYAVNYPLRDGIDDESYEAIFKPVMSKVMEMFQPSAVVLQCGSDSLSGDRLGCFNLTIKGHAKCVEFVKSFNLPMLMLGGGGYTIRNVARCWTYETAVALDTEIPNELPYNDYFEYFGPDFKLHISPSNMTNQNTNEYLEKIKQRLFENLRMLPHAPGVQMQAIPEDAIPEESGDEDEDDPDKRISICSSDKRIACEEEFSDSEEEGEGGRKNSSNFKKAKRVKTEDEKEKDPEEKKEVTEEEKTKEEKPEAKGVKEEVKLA

Consider `O=C(CCCCCN1C(=O)c2cccc3cc(NC(=O)c4ccccc4)cc(c23)C1=O)NO` [KNH019], for which the IC50 (usually the point on the concentration scale where inhibition reaches its midpoint) turned out to be 91 ± 6 nM against HDAC1 (setting [4]), 64 ± 0.2 nM on HDAC3 (setting [4]) and 2950 ± 460 nM against HDAC8 (setting [4]). Also, the “Selectivity factor (SF) = HDAC1 IC50/HDAC6 IC50” value on HDAC1 (selectivity for HDAC6 over HDAC1) is recorded as 91. Further, at HDAC1 (setting [5]), the “HDAC1 average enzyme isoform activity (percentage of full enzyme activity)” value amounted to 36.3%. At HDAC3 (selectivity for HDAC6 over HDAC3), the “Selectivity factor (SF) HDAC3 against HDAC6” value came to 64. The “HDAC3 average enzyme isoform activity (percentage of full enzyme activity)” value on HDAC3 (setting [5]) was 24.1%. Further, at HDAC8 (selectivity for HDAC6 over HDAC8), the “Selectivity factor (SF) HDAC8 against HDAC6” value came to 2950. Also, the “HDAC8 average enzyme isoform activity (percentage of full enzyme activity)” value at HDAC8 (setting [5]) was 69.3%. Also, the “Increase of tubulin acetylation compared to untreated cells (up to)” value in data set [1] (0-50 µM, dose-dependent) is reported as about 1.5 fold. Further, the “Tubulin acetylation in representative immunostaining images” value in data set [1] (10 µM) is listed as “strongly induce”. The “Concentration from which tubulin acetylation was significantly increased” value in data set [1] (compared to untreated cells) is recorded as 10^−6 mM. Moreover, in data set [2] (10 µM), the “Histone acetylation in representative immunostaining images” value was “strongly induce”. The “Concentration from which histone acetylation was significantly increased” value in data set [2] (compared to untreated cells) is listed as 10^−2 mM. Also, the “λabs (absorption maximum)” value in data set [3] amounted to 343 nm. Moreover, in data set [3], the “λabs (secondary absorption maximum)” value is recorded as 374 nm. Also, the λem in data set [3] (excitation at 340 nm) is 437 nm. Further, in data set [3] (relative to quinine sulfate, average of two samples), the “Φf (fluorescence quantum yield)” value was determined as 0.05.
